Experimental data as given in the supplement of paper PMC10307832.

Experiments:
Assay in all cases: relative viability (nuclei count vs DMSO), 5 days (fraction); higher = more cells survive
[1] = compound: O=S(=O)(c1ccccc1)N(CC(F)(F)F)c1ccc(C(O)(C(F)(F)F)C(F)(F)F)cc1 + O=C(c1cc(Cc2n[nH]c(=O)c3ccccc23)ccc1F)N1CCN(C(=O)C2CC2)CC1 [Olaparib] (partner 8 µM)
Summary of the method: (§1)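 After 5 days of treatment, lung cancer cells in 1536-well plates were fixed and stained in a single step (final 0.05% Triton X-100, 1% formaldehyde, 1 ug/ml Hoechst) and their nuclei counted on 4× images. Treatment had been applied by pin tool the day after seeding as one drug alone or as a fixed anchor-drug dose with five library-drug doses (not always all listed) in √10 steps. Relative viability is the nuclei count of treated wells divided by that of vehicle wells, and values are medians of duplicate plates.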

[2] = compound: C1=CC2=C(C=CC(=C2)C=C3C(=O)NC(=NCC4=CC=CS4)S3)N=C1 [RO-3306] + CC(=O)c1c(C)c2cnc(Nc3ccc(N4CCNCC4)cn3)nc2n(C2CCCC2)c1=O [Palbociclib] (partner 0.5 µM)
Summary of the method: as §1

[3] = compound: O=S(=O)(c1ccccc1)N(CC(F)(F)F)c1ccc(C(O)(C(F)(F)F)C(F)(F)F)cc1 + C[C@]1(O)C[C@@H](c2nc(-c3ccc4ccc(-c5ccccc5)nc4c3)c3c(N)nccn32)C1 [Linsitinib] (partner 1 µM)
Summary of the method: as §1

[4] = compound: O=S(=O)(c1ccccc1)N(CC(F)(F)F)c1ccc(C(O)(C(F)(F)F)C(F)(F)F)cc1
Summary of the method: (§2)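 Lung cancer cell lines received five library-drug doses (not always all listed) spaced by √10, pinned on vehicle-anchored 1536-well plates after an overnight stay at 37 °C. Five days later, with no medium change, nuclei were Hoechst-stained, imaged at 4× and counted with MetaXpress. Viability is treated-well nuclei relative to vehicle-well nuclei, as a median across plates. Passing plates had control CV below 25% and at least one doubling.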

[5] = compound: C1=CC2=C(C=CC(=C2)C=C3C(=O)NC(=NCC4=CC=CS4)S3)N=C1 [RO-3306]
Summary of the method: as §2

[6] = compound: COc1cc2c(Oc3ccc(NC(=O)C4(C(=O)Nc5ccc(F)cc5)CC4)cc3F)ccnc2cc1OCCCN1CCOCC1 [Foretinib] (anchor plate); conditions: 0.25 µM
Summary of the method: as §2

Row | Cell Line | relative viability ([1]; first compound 0.8 µM) | relative viability ([1]; first compound 2.53 µM) | relative viability ([1]; first compound 8 µM) | relative viability ([2]; first compound 0.01 µM) | relative viability ([2]; first compound 0.03162 µM) | relative viability ([2]; first compound 0.1 µM) | relative viability ([2]; first compound 0.3162 µM) | relative viability ([2]; first compound 1 µM) | relative viability ([3]; first compound 0.8 µM) | relative viability ([3]; first compound 2.53 µM) | relative viability ([3]; first compound 8 µM) | relative viability ([4]; 0.8 µM) | relative viability ([4]; 2.53 µM) | relative viability ([4]; 8 µM) | relative viability ([5]; 0.01 µM) | relative viability ([5]; 0.03162 µM) | relative viability ([5]; 0.1 µM) | relative viability ([5]; 0.3162 µM) | relative viability ([5]; 1 µM) | relative viability [6]
1 | HOP-62 | 0.226 | 0.49 | 0.392 | 0.519 | 0.481 | 0.416 | 0.43 | 0.446 | 1.14 | 0.607 | 0.836 | 1.02 | 0.923 | 0.837 | 1.09 | 0.966 | 1.06 | 1.01 | 1.07 | 1.12
2 | LC-2-ad | 0.689 | 0.675 | 0.674 | 0.504 | 0.399 | 0.512 | 0.515 | 0.483 | 0.701 | 0.831 | 0.816 | 0.992 | 0.936 | 0.892 | 0.955 | 0.85 | 0.929 | 1.02 | 0.95 | 0.973
3 | LCLC-97TM1 |  | 0.355 | 0.257 | 0.203 | 0.218 | 0.237 | 0.214 | 0.194 | 0.197 | 0.179 | 0.202 | 0.796 | 0.837 | 0.885 | 0.895 | 0.799 | 0.932 | 1.04 | 0.942 | 0.937
4 | LCLC-103H | 0.813 | 0.737 | 0.772 | 0.472 | 0.462 | 0.514 | 0.492 | 0.486 | 1.06 | 1.17 | 0.936 | 1.09 | 0.966 | 1.07 | 1.01 | 0.935 | 1.02 | 0.998 | 0.923 | 0.805
5 | LK-2 | 0.918 | 0.845 | 0.816 | 0.862 | 0.574 | 0.615 | 0.908 | 0.651 | 0.643 | 0.553 | 0.301 | 1.06 | 0.894 | 0.98 | 1.07 | 0.855 | 0.922 | 1.17 | 1.02 | 1.18
6 | LOU-NH91 | 0.966 | 0.935 | 0.913 | 0.538 | 0.547 | 0.542 | 0.526 | 0.53 | 0.996 | 0.92 | 0.915 | 0.984 | 0.968 | 1.05 | 0.931 | 0.914 | 0.934 | 0.918 | 0.852 | 0.94
7 | LU99A | 0.253 | 0.248 | 0.392 | 0.438 | 0.418 | 0.425 | 0.374 | 0.386 | 0.47 | 0.524 | 0.558 | 1.09 | 0.885 | 0.875 | 0.983 | 0.831 | 0.876 | 0.912 | 0.817 | 0.827
8 | LXF-289 | 1.03 | 0.91 | 1.04 | 0.62 | 0.631 | 0.627 | 0.577 | 0.616 | 0.929 | 0.795 | 0.821 | 0.949 | 0.882 | 0.843 | 1.01 | 1 | 1.01 | 1.02 | 1 | 0.991
9 | NCI-H23 | 0.31 | 0.23 | 0.302 | 0.513 |  | 0.46 | 0.472 | 0.454 | 0.627 | 0.571 | 0.605 | 1.09 | 1.07 | 1.15 | 0.958 | 0.715 | 0.837 | 1.03 | 1.02 | 0.969
10 | NCI-H322M | 0.81 | 0.734 | 0.857 | 0.472 | 0.469 | 0.502 | 0.433 | 0.478 | 1.09 | 0.915 | 0.999 | 1.08 | 0.966 | 0.866 | 0.86 | 0.908 | 0.854 | 0.954 | 1.01 | 1.01
11 | NCI-H358 |  | 0.563 | 0.517 | 0.163 | 0.106 | 0.126 | 0.116 | 0.112 | 0.598 | 0.521 | 0.578 | 0.815 | 0.796 | 0.826 | 1.13 | 0.779 | 0.902 | 0.947 | 0.766 | 0.694
12 | NCI-H441 | 0.657 | 0.469 | 0.654 | 0.197 | 0.179 | 0.182 | 0.204 | 0.157 | 0.559 | 0.504 | 0.49 | 1.12 | 0.896 | 0.941 | 1.09 | 0.795 | 1.11 | 1.13 | 1.04 | 0.994
13 | NCI-H460 | 0.452 | 0.432 | 0.407 | 0.191 | 0.12 | 0.142 | 0.26 | 0.136 | 1.55 | 0.829 | 0.695 | 1.06 | 0.949 | 0.943 | 1.05 | 0.956 | 0.983 | 1.02 | 1.04 | 1
14 | NCI-H520 | 0.333 | 0.346 | 0.32 | 0.254 | 0.224 | 0.235 | 0.261 | 0.267 | 1.09 | 1.23 | 1.25 | 1.1 | 0.963 | 0.982 | 1.05 | 0.834 | 1.01 | 1.04 | 0.957 | 0.745
15 | NCI-H647 | 0.667 | 0.418 | 0.6 | 0.486 | 0.325 | 0.355 | 0.474 | 0.446 | 1.31 | 1.07 | 1.16 | 1.14 | 0.849 | 0.877 | 0.881 | 0.841 | 0.928 | 1.07 | 0.864 | 1.17
